Results on two compounds are retold here after paper PMC7862923 (Nature chemical biology, 2020).

What all share (assay type): cell-based
One assay deals with HCT116 cell line. In words: Proliferation and pathway signaling. Particulars: HCT116, KRAS(G13D).
In a further assay the target is BRAF(V600E) (Homo sapiens, UniProt P15056, V600E). In words: Immunoblot of BRAF protein levels in A375 cells. To be noted: 24 h.
For a further assay, the system named is pMEK and pERK levels. In words: Pathway signaling. To be noted: A375 cells, 100 nM, 24 h.
In a further assay the test system is pERK. The assay is described as follows: pERK AlphaLISA in MeWo cells.
The next assay has as its target BRAF(WT) (Homo sapiens, UniProt P15056). The assay is described as follows: Immunoblot of BRAF levels in HCT116 cells. Particulars: KRAS(G13D), 24h. A general note: A western blot detects proteins with antibodies after separation by electrophoresis.
The subject of the next assay is A375 cells. The assay is described as follows: RNAseq transcriptome analysis. To be noted: 200nM, 20 hours.

BRAF(V600E), sequence (P15056 whole entry V600E): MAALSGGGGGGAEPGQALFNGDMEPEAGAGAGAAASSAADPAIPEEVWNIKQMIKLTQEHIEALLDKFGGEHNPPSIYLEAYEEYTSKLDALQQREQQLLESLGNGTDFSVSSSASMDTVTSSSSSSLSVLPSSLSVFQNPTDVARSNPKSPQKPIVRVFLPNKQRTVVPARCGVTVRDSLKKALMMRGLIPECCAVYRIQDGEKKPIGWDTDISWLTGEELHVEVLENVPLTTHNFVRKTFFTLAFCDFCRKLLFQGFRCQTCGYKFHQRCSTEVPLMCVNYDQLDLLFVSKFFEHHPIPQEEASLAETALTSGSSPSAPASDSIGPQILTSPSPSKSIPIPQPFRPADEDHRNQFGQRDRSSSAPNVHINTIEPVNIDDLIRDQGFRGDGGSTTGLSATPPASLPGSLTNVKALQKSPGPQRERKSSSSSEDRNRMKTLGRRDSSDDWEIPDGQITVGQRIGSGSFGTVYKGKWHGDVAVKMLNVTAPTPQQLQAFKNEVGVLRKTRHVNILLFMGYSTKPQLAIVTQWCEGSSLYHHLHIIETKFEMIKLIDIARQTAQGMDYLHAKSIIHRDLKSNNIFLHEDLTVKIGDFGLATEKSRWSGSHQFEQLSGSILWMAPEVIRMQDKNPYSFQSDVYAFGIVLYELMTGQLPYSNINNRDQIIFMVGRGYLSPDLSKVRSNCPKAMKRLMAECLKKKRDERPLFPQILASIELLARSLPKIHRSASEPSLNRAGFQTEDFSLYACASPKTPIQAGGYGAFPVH
BRAF(WT), sequence (P15056 whole entry): as the sequence (P15056 whole entry V600E) above, with E600V counted along it

For `CCCS(=O)(=O)Nc1ccc(F)c(-n2cc(-c3cncnc3)c3nc(N(C)C4CCN(CC)CC4)ccc32)c1F` [BI 882370*], the “inhibiting cell proliferation and pathway signaling” value in the assay on HCT116 cell line is “equally ineffective”. The “reduction of BRAF(V600E) protein levels” value at BRAF(V600E) (100 nM) is listed as “no effect on BRAF(V600E) levels”. Also, the “repression of pathway signaling” value with pMEK and pERK levels was “comparable to P4B and P5B”. For the same compound, the “effect on ERK activation (pERK)” value with pERK is reported as “induced paradoxical ERK activation”. On BRAF(WT), the “ability to reduce BRAF levels” value is listed as “no ability to reduce BRAF levels”. The “number of genes altered (differentially expressed)” value in the assay with A375 cells was 195.

`Nc1cccc2c1C(=O)N(C1CCC(=O)NC1=O)C2=O` (stereo not shown) [pomalidomide]: the “effect on BRAF protein levels (degrader function)” value at BRAF(V600E) is “failed to reduce BRAF protein levels”.
